Results: patent US9834530B2, “3-furyl-2-cyano-2-acrylamide derivative, preparation method therefor, pharmaceutical composition and use thereof” (JENKEM TECHNOLOGY CO., LTD. (BEIJING), priority 2013, dated 2017)

Columns and labels:
[1] = system: AD fruit flies (elav/Y; UAS-Aβ42/+; P35*H29.3); assay: Pavlovian olfactory learning test in AD fruit flies (anti-senile dementia effect); format: in vivo; settings: for PI (mean value), learning and memory index: AD flies (P35*H29.3) given drug, final concentration 100 μM, 50 μl, day 2 to day 8, immediate memory tested day 9, PI=0 no memory, PI=100 all remember; for anti-senile dementia effect (in words, from Table 1): AD flies, T test against AD flies without administration: P>0.05, P<0.05 or P<0.01; for anti-senile dementia effect compared with JKF-006, JKF-027 and JKF-011: transgenic AD fruit flies, comparison with compounds of WO2012/103282
Procedure: In all tests, w^1118 (isoCJ1) was used as a control gene system, referred to as the “2U”. Progeny fruit flies with disease carrying P35 and H29.3 were obtained by integration of fruit flies carrying elav-GAL4^c155 (referred to as P35) and fruit flies carrying Aβ42 (UAS-Aβ42; referred to as H29.3). The first generation of fruit flies obtained by hybridization was used for behavioral testing. Details as follows:
All the fruit flies were reared in an environment with a temperature of 24° C., relative humidity of 40% RH. On the first day, newborn male 2U*H29.3 fruit flies and male AD fruit flies were picked out and put into glass bottles (there were about 120 fruit flies in each bottle). During administration period, these fruit flies were placed in an environment with a temperature of 28° C., relative humidity of 42% RH. From the second day to the eighth day, the fruit flies were transferred into new glass bottles 4 hours later after administration. All the fruit flies were placed in an environment with a temperature of 28° C., relative humidity of 42% RH until 1 hour before Pavlovian olfactory learning test.
On the first day of eclosion dispensation of drugs was conducted, the second day administration was carried out. The respective initial amount of compounds JK-01A, JK-03A, JK-05A, JK-06A and JK-07A was 10 mg, and the final concentration was 100 μM. Each group had two glass bottles of flies which were administered 50 μl within seven days (from the second day to the eighth day). During administration period, since some fruit flies died naturally or for other causes, about 100 flies were remained in each bottle when Pavlovian olfactory test was conducted on the ninth day.
The fruit flies were placed on the automatic training device for training. In training, a group of about 100 flies first contacted with one kind of odor (octanol or methyl cyclohexanol) accompanied by electric shocks (an electric shock of 60 V for 3.5 s at 1.5-s intervals) for 60 s, rested at 45-s intervals, and then contacted with another kind of odor (methyl cyclohexanol or octanol) without electric shocks for 60 s. To test the “immediate memory” (also called “learning”), flies after the training were immediately sent to the T-maze choice point, and allowed to choose between two kinds of odor, the learning and memory index PI (Performance index) in every test was calculated according to the number of flies choosing each kind of odor. PI=0 represented 50:50, meaning that fruit flies could not remember the odor accompanied by electric shocks, PI=100 represented that 100% of the flies remembered the odor accompanied by electric shocks. Learning test was carried out in a darkroom with a temperature of 25° C., relative humidity of 70% RH. The fruit flies entered the darkroom to be familiar with the environment 1 hour before test.
The test data was analyzed and plotted by employing GraphPad Prism.
In the activity test, the olfactory short-term memory impairment tests of healthy flies with the same genetic background and without administration, AD flies without administration, AD flies administrated positive or negative control drugs and AD flies administrated test drugs were carried out at the same time, their learning and memory indexes were calculated, and the learning and memory index of AD flies administrated test drugs was compared with those of healthy flies with the same genetic background, AD flies, AD flies administrated positive or negative control drugs to evaluate the anti-senile dementia effect of test compounds. A relatively higher learning and memory index of AD flies administrated test drugs represented a stronger anti-senile dementia effect of test compounds. […]

ICR mice = assay: Preliminary acute toxicity test; format: in vivo; settings: given twice 3 hours apart, 14 days observation
Procedure: Method: in the acute toxicity test, ICR mice were used and divided into six groups for administration, with 10 mice in each group and half male and half female. […] The control group was administrated the same volume of vehicle. Observation was conducted for 14 consecutive days after administration.

CC(/C=C/C=C(\C)C(=O)O)=C\C=C\C=C(C)\C=C\C=C(/C)C(=O)O [Crocetin, reference compound] was tested, and the “PI (mean value), learning and memory index” value [1] was 40 and the “anti-senile dementia effect (in words, from Table 1)” value [1] was “equivalent anti-senile dementia effects”.
For Cc1nc(Nc2ncc(C(=O)Nc3c(C)cccc3Cl)s2)cc(N2CCN(CCO)CC2)n1 [Dasatinib, reference compound], the “PI (mean value), learning and memory index” value [1] was 56.
In the case of C#Cc1cccc(Nc2ncnc3cc(OCCOC)c(OCCOC)cc23)c1 [Erlotinib, reference compound], the “PI (mean value), learning and memory index” value [1] is reported as 48 and the “anti-senile dementia effect (in words, from Table 1)” value [1] is reported as “had anti-senile dementia effects”.
With N#C/C(=C/c1ccc(CO)o1)C(=O)Nc1ccc(F)cc1 [JK-01A, 2-cyano-N-(4-fluorophenyl)-3-(5-hydroxymethyl-2-furyl)-2-acrylamide] the “PI (mean value), learning and memory index” value [1] was 65, the “anti-senile dementia effect (in words, from Table 1)” value [1] was “significant anti-senile dementia effects” and the “anti-senile dementia effect compared with JKF-006, JKF-027 and JKF-011” value [1] was “more significant anti-senile dementia effects”. For the same compound, the “Test result (acute toxicity)” value (ICR mice; 4000 mg/kg/d p.o.) was “No death,”.
In the case of N#C/C(=C\c1ccc(CO)o1)C(=O)NCCc1c[nH]c2ccccc12 [JK-03A, 2-cyano-N-[2-(1H-indol-3-yl)ethyl]-3-(5-hydroxymethyl-2-furyl)-2-acrylamide], the “PI (mean value), learning and memory index” value [1] is reported as 56, the “anti-senile dementia effect (in words, from Table 1)” value [1] is reported as “significant anti-senile dementia effects” and the “anti-senile dementia effect compared with JKF-006, JKF-027 and JKF-011” value [1] is reported as “more significant anti-senile dementia effects”. The “Test result (acute toxicity)” value (ICR mice; 6000 mg/kg/d p.o.) was “No death,”.
With N#C/C(=C\c1ccc(NCCOCCO)o1)C(=O)NCCc1c[nH]c2ccccc12 [JK-05A, 2-cyano-N-[2-(1H-3-indolyl)ethyl]-3-{5-[2-(2-hydroxyethoxy)ethylamino]-2-furyl}-2-acrylamide] the “PI (mean value), learning and memory index” value [1] was 40, the “anti-senile dementia effect (in words, from Table 1)” value [1] was “equivalent anti-senile dementia effects” and the “Test result (acute toxicity)” value (ICR mice; 5000 mg/kg/d p.o.) was “No death,”.
COCCOCCOCc1ccc(/C=C(\C#N)C(=O)Nc2ccc(F)cc2)o1 [JK-06A, 2-cyano-N-(4-fluorophenyl)-3-[5-(2,5,8-trioxa-nonyl-1-yl)furan-2-yl]-2-acrylamide] was tested, and the “PI (mean value), learning and memory index” value [1] was 67, the “anti-senile dementia effect (in words, from Table 1)” value [1] was “significant anti-senile dementia effects” and the “anti-senile dementia effect compared with JKF-006, JKF-027 and JKF-011” value [1] was “more significant anti-senile dementia effects”. The “Test result (acute toxicity)” value (ICR mice; 6000 mg/kg/d p.o.) was “No death,”.
In the case of N#CC(=Cc1ccc(COCCOCCOCCO)o1)C(=O)NCCc1c[nH]c2ccccc12 [JK-07A, 2-cyano-N-[2-(1H-3-indolyl)ethyl]-3-[5-(1,4,7,10-tetraoxa-undecane-11-yl)furan-2-yl]-2-acrylamide], the “PI (mean value), learning and memory index” value [1] is reported as 58, the “anti-senile dementia effect (in words, from Table 1)” value [1] is reported as “significant anti-senile dementia effects” and the “anti-senile dementia effect compared with JKF-006, JKF-027 and JKF-011” value [1] is reported as “more significant anti-senile dementia effects”. The “Test result (acute toxicity)” value (ICR mice; 4000 mg/kg/d p.o.) was “No death,”.
N#C/C(=C\c1ccc(-c2cc(C(=O)O)ccc2Cl)o1)C(=O)Nc1ccc(F)cc1 [JKF-006, reference compound] was tested, and the “PI (mean value), learning and memory index” value [1] was 37 and the “anti-senile dementia effect (in words, from Table 1)” value [1] was “equivalent anti-senile dementia effects”.
For N#C/C(=C\c1ccc(N2CCOCC2)o1)C(=O)NCCc1c[nH]c2ccccc12 [JKF-027, reference compound], the “PI (mean value), learning and memory index” value [1] was 54 and the “anti-senile dementia effect (in words, from Table 1)” value [1] was “had anti-senile dementia effects”.
